US12636370B2, “Combination therapy for treatment of cancer” (Institute For Cancer Research, priority 2019, dated 2026)

Columns and labels:
Assay type in all cases: cell-based
[1] = test system: BET proteins (BRD2, BRD3, BRD4); experiment: Western blot of BET protein levels, OVCAR8 parental cells
OVCAR8 cells [2] = experiment: Single-run proteome analysis and RNA-seq, OVCAR8 cells; conditions: 48 hours, single-run proteome analysis
Experimental: Enrichment maps of pathways repressed by short-term BBD generated from single-run proteome profiles of OVCAR8 cells treated with BBDs (MZ1 or ARV825) for 48 hours were prepared (data not shown). Statistical differences in protein log 2 LFQ z-scores comparing BBDs or BBIs to control treated cells was determined by paired T-Test Benjamini-Hochberg adjusted p values at FDR of <0.05 using Perseus Software. […] Enrichment maps were generated in Cytoscape using the Enrichment Map app v2.2.1. […] Statistical differences in protein log 2 LFQ z-scores comparing BBDs or BBIs to control treated cells was determined.

OVCAR8 MZ1-R cells [3] = experiment: CellTiter-Glo cell viability, OVCAR8 MZ1-R cells; conditions: escalating doses, 5 days; for cell viability of MZ1-R cells compared with parental cells: OVCAR8 MZ1-R; for sensitivity of MZ1-R cells relative to JQ1-R cells or parental cells: OVCAR8, inhibitor screen
OVCAR8 ARV-R cells [4] = experiment: CellTiter-Glo cell viability, OVCAR8 ARV-R cells; conditions: escalating doses, 5 days
OVCAR8 JQ1-R cells [5] = experiment: CellTiter-Glo cell viability, OVCAR8 JQ1-R cells; conditions: escalating doses, 5 days
[6] = test system: BET proteins (BRD2, BRD3, BRD4); experiment: Western blot of BET proteins and BRD4 targets, OVCAR8 MZ1-R cells; conditions: Western blot
[7] = test system: BET proteins (BRD2, BRD3, BRD4); experiment: Western blot of BET proteins, OVCAR8 ARV-R cells
BET proteins, FOSL1, MYC = experiment: Western blot of BET proteins and BRD4 targets, JQ1-R cells
OVCAR8 MZ1-R cells [8] = experiment: Apoptosis by Western blot, OVCAR8 MZ1-R cells
OVCAR8 JQ1-R cells [9] = experiment: Apoptosis by cleaved PARP Western blot, OVCAR8 JQ1-R cells
OVCAR8 ARV-R cells [10] = experiment: Apoptosis by cleaved PARP Western blot, OVCAR8 ARV-R cells
OVCAR8 cells [11] = experiment: CellTiter-Glo cell viability, OVCAR8 parental cells; conditions: dose escalation, 5 days
[12] = test system: translation markers, RNA pol II, MYC; experiment: Western blot of translation, BRD4-targets and MYC signaling, OVCAR8 cells; conditions: 500 nM, 48 hours
[13] = test system: INSR and downstream MTOR, AKT and MAPK signaling; experiment: Kinase signaling in BBD-R cells (MIB-MS, phospho-blot); conditions: for phosphorylation of P70S6K (T359): BBD-R cells (MZ1-R, ARV-R), 1 μM, 4 hours
Experimental: Reduced MIB-binding of kinases involved in cell cycle (WEE1, CHEK1, CDK2, CDK6 and PLK1), as well as kinases required for translation (EIF2AK1, EIF2AK2, and EIF2AK4) were also observed following GSK529A treatment. […] Enrichment maps of pathways repressed by INSR inhibition generated from MIB-MS profiles of OVCAR8 cells treated with GSK529A (1 μM) treatment for 48 hours. Statistical differences in protein log 2 LFQ z-scores comparing GSK529A to control treated MZ1-R cells was determined by paired T-Test Benjamini- Hochberg adjusted p values at FDR of <0.05 using Perseus Software. […] Enrichment maps were generated in Cytoscape using the Enrichment Map app v2.2.1. (data not shown).

BRD2, BRD3 or BRD4 RNA = experiment: qRT-PCR of BRD RNA levels, OVCAR8 MZ1-R cells; conditions: 1 μM, 48 hours
[14] = test system: KURAMOCHI, COV362 and OVCAR5 MZ1-R cells; experiment: CellTiter-Glo cell viability, KURAMOCHI, COV362 and OVCAR5 MZ1-R cells; conditions: COV362 and OVCAR5, escalating doses, 5 days
[15] = test system: BET proteins (BRD2, BRD4); experiment: Western blot of BET proteins, KURAMOCHI, COV362 and OVCAR5 MZ1-R cells
OVCAR5 JQ1-R cells = experiment: Growth curves, OVCAR5 JQ1-R cells

Cc1sc2c(c1C)C(c1ccc(Cl)cc1)=N[C@@H](CC(=O)Nc1ccc(OCCOCCOCCOCCNc3cccc4c3C(=O)N(C3CCC(=O)NC3=O)C4=O)cc1)c1nnc(C)n1-2 (stereo partly shown) [ARV825]
BET protein levels [1]: degraded BET proteins in a concentration-dependent manner
global protein level changes (OVCAR8 cells [2]): uniquely downregulated proteins involved in ribosome and translation signaling
cell viability of MZ1-R cells compared with parental cells (OVCAR8 MZ1-R cells [3]): inhibited cell viability
cell viability of ARV-R cells compared with parental cells (OVCAR8 ARV-R cells [4]): rightward shift
cell viability of JQ1-R cells (OVCAR8 JQ1-R cells [5]): inhibited cell viability
BET protein levels [6]: reduced BET proteins
BET protein levels [7]: insufficient to degrade BRD2, BRD3 or BRD4
BET protein levels (BET proteins, FOSL1, MYC): degraded BET proteins
BRD4 target (FOSL1, MYC) protein levels (BET proteins, FOSL1, MYC): reduced MYC/FOSL1 protein levels
apoptosis (OVCAR8 MZ1-R cells [8]): promoted apoptosis
apoptosis (OVCAR8 JQ1-R cells [9]): induced apoptosis

Cc1ncsc1-c1ccc([C@H](C)NC(=O)[C@@H]2C[C@@H](O)CN2C(=O)[C@@H](NC(=O)COCCCOCCNC(=O)C[C@@H]2N=C(c3ccc(Cl)cc3)c3c(sc(C)c3C)-n3c(C)nnc32)C(C)(C)C)cc1 [ARV-771]
cell viability of MZ1-R cells compared with parental cells (OVCAR8 MZ1-R cells [3]): cross-resistant
cell viability of ARV-R cells compared with parental cells (OVCAR8 ARV-R cells [4]): failed to reduce BET proteins, block growth or induce apoptosis
BET protein levels [7]: failed to reduce BET proteins, block growth or induce apoptosis
apoptosis (OVCAR8 ARV-R cells [10]): failed to reduce BET proteins, block growth or induce apoptosis

O=C(O)c1ccc2c(c1)nc(Nc1cccc(Cl)c1)c1ccncc12 [Cx-4945]
cell viability of MZ1-R cells compared with parental cells (OVCAR8 MZ1-R cells [3]): more sensitive
cell viability of JQ1-R cells (OVCAR8 JQ1-R cells [5]): more sensitive

CS(=O)(=O)N1CCN(Cc2cc3nc(-c4cccc5[nH]ncc45)nc(N4CCOCC4)c3s2)CC1 [GDC-0941]
cell viability of MZ1-R cells compared with parental cells (OVCAR8 MZ1-R cells [3]): more sensitive
cell viability of JQ1-R cells (OVCAR8 JQ1-R cells [5]): more sensitive

Cc1sc2c(c1C)C(c1ccc(Cl)cc1)=N[C@@H](CC(=O)OC(C)(C)C)c1nnc(C)n1-2 [JQ1]
GI50 (OVCAR8 cells [11]): 133 nM
RNA pol II (S2) phosphorylation [12]: not observed with JQ1
cell viability of MZ1-R cells compared with parental cells (OVCAR8 MZ1-R cells [3]): reduced cell viability to a greater extent than parental cells
cell viability of ARV-R cells compared with parental cells (OVCAR8 ARV-R cells [4]): reduced cell viability to a greater extent than parental cells
cell viability of JQ1-R cells (OVCAR8 JQ1-R cells [5]): unaffected by increasing doses of JQ1
BRD4 target (FOSL1, MYC) protein levels (BET proteins, FOSL1, MYC): failed to reduce BRD4 target FOSL1

COc1ncccc1-c1cnn2ccc(N3CCN(C(=O)OC(C)C)CC3)nc12 [LP-935509]
sensitivity of MZ1-R cells relative to JQ1-R cells or parental cells (OVCAR8 MZ1-R cells [3]): more sensitive
cell viability of ARV-R cells compared with parental cells (OVCAR8 ARV-R cells [4]): reduced cell viability more than in parental cells

CNc1ncc2cc(-c3cc(NC(=O)NCCC(C)(C)C)c(F)cc3C)c(C)nc2n1 [LY3009120]
cell viability of JQ1-R cells (OVCAR8 JQ1-R cells [5]): most profound impact on JQ1-R cell viability

NC1(c2ccc(-c3nc4ccn5c(=O)[nH]nc5c4cc3-c3ccccc3)cc2)CCC1 [MK-2206]
sensitivity of MZ1-R cells relative to JQ1-R cells or parental cells (OVCAR8 MZ1-R cells [3]): more sensitive
cell viability of ARV-R cells compared with parental cells (OVCAR8 ARV-R cells [4]): reduced cell viability more than in parental cells

COC[C@@H](C)NC1CCC(Nc2cc(-c3cccc(NCC4(C#N)CCOCC4)n3)c(Cl)cn2)CC1 (stereo partly shown) [NVP-2]
cell viability of MZ1-R cells compared with parental cells (OVCAR8 MZ1-R cells [3]): more sensitive
cell viability of JQ1-R cells (OVCAR8 JQ1-R cells [5]): more sensitive

CNC(=O)c1ccccc1Nc1cc(Nc2ccc(N3CCOCC3)cc2OC)ncc1C(F)(F)F [PND-1186]
sensitivity of MZ1-R cells relative to JQ1-R cells or parental cells (OVCAR8 MZ1-R cells [3]): more sensitive

CCC(=O)N1CCN(c2ccc(-n3c(=O)ccc4cnc5ccc(-c6cnc7ccccc7c6)cc5c43)cc2C(F)(F)F)CC1 [Torin-1]
BET protein levels [6]: reduced BRD2 and BRD4 levels
BET protein levels [7]: reduced BRD2 and BRD4 levels
phosphorylation of P70S6K (T359) [13]: reduced MTOR-mediated phosphorylation of P70S6K (T359)

CC(C)C[C@H](NC(=O)[C@H](Cc1ccccc1)NC(=O)c1cnccn1)B(O)O [bortezomib]
phosphorylated RNA pol II (S2) ([13]; OVCAR8 MZ1-R cells, 48 hour RAD001 treatment, with or without bortezomib): could be reversed by bortezomib treatment

CCN(CCO)CCCC(C)Nc1ccnc2cc(Cl)ccc12 (stereo not shown) [hydroxychloroquine]
cell viability of MZ1-R cells compared with parental cells (OVCAR8 MZ1-R cells [3]): more sensitive
cell viability of JQ1-R cells (OVCAR8 JQ1-R cells [5]): more sensitive

CS(=O)(=O)CCNCc1ccc(-c2ccc3ncnc(Nc4ccc(OCc5cccc(F)c5)c(Cl)c4)c3c2)o1 [lapatinib]
cell viability of ARV-R cells compared with parental cells (OVCAR8 ARV-R cells [4]): reduced cell viability more than in parental cells
BET protein levels [6]: reduced BRD2 and BRD4 levels
BET protein levels [7]: reduced BRD2 and BRD4 levels
phosphorylation of P70S6K (T359) [13]: reduced MTOR-mediated phosphorylation of P70S6K (T359)
BRD2, BRD3 or BRD4 RNA levels (BRD2, BRD3 or BRD4 RNA): unaffected
cell viability / growth of MZ1-R cells compared with parental cells [14]: significantly blocked cell growth to a greater extent than parental cells
BET protein levels [15]: reduced BRD2 and BRD4 proteins
growth inhibition (OVCAR5 JQ1-R cells): minimal growth inhibition

O=C(c1cc(Cc2n[nH]c(=O)c3ccccc23)ccc1F)N1CCN(C(=O)C2CC2)CC1 [olaparib]
cell viability of MZ1-R cells compared with parental cells (OVCAR8 MZ1-R cells [3]): more sensitive
cell viability of JQ1-R cells (OVCAR8 JQ1-R cells [5]): more sensitive
